The results in this text go back to patent publication US12012412B2, “Solid forms of pyrazolo[3,4-d]pyrimidine compounds” (Pfizer Inc., priority 2021, dated 2024).

Holding throughout (format): physicochemical
The nature of series [1]: Particle size of batches of Solid Form A. The note with it: batches of Solid Form A, milled or unmilled per batch. From the text:
Primary particles from below 100 μm to around 500 μm in size, with soft agglomerates up to several millimeters, were observed. The D[4,3] of this material was 195 μm. This material was subsequently milled, to give far fewer large particles and an overall much smaller average primary particle size, giving a D[4,3] of 49.5 μm. See Table 8 for a comparison of particle size properties of various batches.

Series [2] can be described thus: True density of Solid Form A. Conditions: lots of Solid Form A; A2 and A9 unmilled, A3 and A6/A7 milled.
Series [3] in a line: Mechanical properties of batches of Solid Form A. The note with it: lots of Solid Form A; A2 and A9 unmilled, A3 and A6/A7 milled.
Series [4] is described as follows: Solubility of Solid Form A and amorphous Compound X in various solvents at room temperature.

≈ marks a conversion by molar mass, not a printed value.

On to `CC1CN(Cc2ncccn2)CC1c1nc2c(cnn2C2CCOCC2)c(=O)[nH]1` (stereo not drawn) [A9], for which, in series [1], the “Particle size D[4, 3]” value came to 195 μm; the Particle size D[v, 0.1] worked out at 20.6 µm; the Particle size D[v, 0.9] stood at 362 µm. Further, the “True density (g/cm3), Value” in series [2] came to 1.29 g/cm3. For the same compound, in series [3], the “Brittle fracture index, Rating” value is listed as “Very low”; the “Brittle fracture index, Value” is given as −0.077; the “Brittle/viscoelastic bonding index (x105), Value” came out at 1.95; the “Brittle/viscoelastic bonding index, Rating” value is listed as “Poor”. Moreover, in series [3], the “Compression stress (MPa), Value” turned out to be 52.5 MPa; the “Compression stress, Rating” value was “Moderate”; the “Compromised Tensile strength (MPa), Value” (from here on “Compromised Tensile strength”) worked out at 0.302 MPa; the “Dynamic indentation hardness (MPa), Value” was found to be 63.6 MPa. In series [3], the “Dynamic indentation hardness [ductility rating], Rating” value was “High”; the “Solid fraction, Value” was determined as 0.85; the “Tensile strength (MPa), Value” came to 0.255 MPa; the “Tensile strength, Rating” value is on record as “Very low”. Also, in series [3], the “Worst case bonding index (x102), Value” is listed as 0.401 and the “Worst case bonding index, Rating” value is “Moderate”.

For the compound `CC1CN(Cc2ncccn2)CC1c1nc2c(cnn2C2CCOCC2)c(=O)[nH]1` (stereo not drawn) [A8], in series [1], the “Particle size D[4, 3]” value was found to be 48.6 μm; the Particle size D[v, 0.1] was determined as 3.96 µm; the Particle size D[v, 0.9] came out at 118 µm.

`C[C@@H]1CN(Cc2ncccn2)C[C@H]1c1nc2c(cnn2C2CCOCC2)c(=O)[nH]1` [amorphous Compound X, 6-((3S,4S)-4-methyl-1-(pyrimidin-2-ylmethyl)pyrrolidin-3-yl)-1-(tetrahydro-2H-pyran-4-yl)-1,5-dihydro-4H-pyrazolo[3,4-d]pyrimidin-4-one]: the “Solubility (mg/ml)” value in series [4] (1,2-Xylene) was 19.9 mg/mL (≈ 50.3 mM); in series [4] (Chloroform), more than 92.3 mg/mL; in series [4] (Dioxane), 27.9 mg/mL (≈ 70.5 mM); in series [4] (EtOAc), 20.6 mg/mL (≈ 52.1 mM); in series [4] (EtOH) it was more than 98.6 mg/mL; in series [4] (Glyme (1,2-Dimethoxyethane)), more than 113.2 mg/mL. The “Solubility (mg/ml)” value is 64.8 mg/mL (≈ 164 mM) in series [4] (H2O (Water)); more than 26.8 mg/mL in series [4] (H2O-EtOH (Water/EtOH)); more than 75.6 mg/mL in series [4] (H2O-MeCN (Water/MeCN)); more than 42.5 mg/mL in series [4] (H2O-MeOH (Water/MeOH)); more than 130.3 mg/mL in series [4] (H2O-acetone (Water/acetone)); 0.7 mg/mL (≈ 1.77 mM) in series [4] (Heptane). Further, the “Solubility (mg/ml)” value was more than 85.9 mg/mL in series [4] (IPA); 11.2 mg/mL (≈ 28.3 mM) in series [4] (MTBE); more than 117.3 mg/mL in series [4] (MeCN); more than 90.2 mg/mL in series [4] (MeOH); more than 70.2 mg/mL in series [4] (Nitromethane); 81.5 mg/mL (≈ 206 mM) in series [4] (THF). Also, in series [4] (Toluene), the “Solubility (mg/ml)” value was determined as 18.3 mg/mL (≈ 46.3 mM). For the same compound, the “Solubility (mmol)” value is recorded as 50 mmol in series [4] (1,2-Xylene); more than 202 mmol in series [4] (Acetone); more than 233 mmol in series [4] (Chloroform); 71 mmol in series [4] (Dioxane); 52 mmol in series [4] (EtOAc); more than 249 mmol in series [4] (EtOH). Further, the “Solubility (mmol)” value in series [4] (Glyme (1,2-Dimethoxyethane)) is more than 286 mmol; in series [4] (H2O (Water)) it was 164 mmol; in series [4] (H2O-EtOH (Water/EtOH)) it was more than 68 mmol; in series [4] (H2O-MeCN (Water/MeCN)), more than 191 mmol; in series [4] (H2O-MeOH (Water/MeOH)), more than 107 mmol; in series [4] (H2O-acetone (Water/acetone)) it was more than 329 mmol. Further, the “Solubility (mmol)” value is 2 mmol in series [4] (Heptane); more than 217 mmol in series [4] (IPA); 28 mmol in series [4] (MTBE); more than 297 mmol in series [4] (MeCN); more than 228 mmol in series [4] (MeOH); more than 178 mmol in series [4] (Nitromethane). The results for the “Solubility (mmol)” value in series [4] (THF) and in series [4] (Toluene) were 206 mmol and 46 mmol, respectively. The solubility in series [4] (acetone, organic solvent or mixture) was more than 79.7 mg/mL.

For `CC1CN(Cc2ncccn2)CC1c1nc2c(cnn2C2CCOCC2)c(=O)[nH]1` (stereo not drawn) [A2], in series [1], the “Particle size D[4, 3]” value is listed as 144 μm; the Particle size D[v, 0.1] was 45.6 µm; the Particle size D[v, 0.9] was found to be 247 µm. Further, the “True density (g/cm3), Value” in series [2] is listed as 1.28 g/cm3. In addition, in series [3], the “Brittle fracture index, Rating” value is “Low”; the “Brittle fracture index, Value” came out at 0.0486; the “Brittle/viscoelastic bonding index (x105), Value” is 2.61; the “Brittle/viscoelastic bonding index, Rating” value was “Poor”. Besides, in series [3], the “Compression stress (MPa), Value” is reported as 58.8 MPa; the “Compression stress, Rating” value is “Moderate”; the “Compromised Tensile strength” value is reported as 0.274 MPa; the “Solid fraction, Value” was 0.87. In series [3], the “Tensile strength (MPa), Value” is 0.3 MPa and the “Tensile strength, Rating” value is “Low”.

For the compound `CC1CN(Cc2ncccn2)CC1c1nc2c(cnn2C2CCOCC2)c(=O)[nH]1` (stereo not drawn) [A4], in series [1], the “Particle size D[4, 3]” value is recorded as 24.1 μm; the Particle size D[v, 0.1] came out at 4.39 µm; the Particle size D[v, 0.9] turned out to be 52.5 µm.

Regarding `CC1CN(Cc2ncccn2)CC1c1nc2c(cnn2C2CCOCC2)c(=O)[nH]1` (stereo not drawn) [A6/A7], the “True density (g/cm3), Value” in series [2] is listed as 1.29 g/cm3. In series [3], the “Brittle fracture index, Rating” value is on record as “Low”; the “Brittle fracture index, Value” was found to be 0.022; the “Brittle/viscoelastic bonding index (x105), Value” came to 5.3; the “Brittle/viscoelastic bonding index, Rating” value was “Poor”. Also, in series [3], the “Compression stress (MPa), Value” turned out to be 56.3 MPa; the “Compression stress, Rating” value is on record as “Moderate”; the “Compromised Tensile strength” value is 0.393 MPa; the “Dynamic indentation hardness (MPa), Value” was 41.6 MPa. Besides, in series [3], the “Dynamic indentation hardness [ductility rating], Rating” value was “Very high”; the “Solid fraction, Value” is 0.85; the “Tensile strength (MPa), Value” stood at 0.41 MPa; the “Tensile strength, Rating” value is on record as “Low”.

Consider `CC1CN(Cc2ncccn2)CC1c1nc2c(cnn2C2CCOCC2)c(=O)[nH]1` (stereo not drawn) [A3], for which, in series [1], the “Particle size D[4, 3]” value was 60.2 μm; the Particle size D[v, 0.1] stood at 10.5 µm; the Particle size D[v, 0.9] was found to be 126 µm. In addition, the “True density (g/cm3), Value” in series [2] was 1.29 g/cm3. In addition, in series [3], the “Brittle fracture index, Rating” value is listed as “Low”; the “Brittle fracture index, Value” is 0.139; the “Brittle/viscoelastic bonding index (x105), Value” is given as 8.44; the “Brittle/viscoelastic bonding index, Rating” value is recorded as “Marginal”. Besides, in series [3], the “Compression stress (MPa), Value” is listed as 67.9 MPa; the “Compression stress, Rating” value was “Moderate”; the “Compromised Tensile strength” value was 0.488 MPa; the “Solid fraction, Value” is 0.857. Also, in series [3], the “Tensile strength (MPa), Value” is given as 0.624 MPa and the “Tensile strength, Rating” value is listed as “Moderate”.

`CC1CN(Cc2ncccn2)CC1c1nc2c(cnn2C2CCOCC2)c(=O)[nH]1` (stereo not drawn) [A6]: in series [1], the “Particle size D[4, 3]” value is 78.6 μm; the Particle size D[v, 0.1] came to 5.89 µm; the Particle size D[v, 0.9] came out at 179 µm. Moreover, in series [1] (listed as A7), the “Particle size D[4, 3]” value amounted to 85.1 μm; the Particle size D[v, 0.1] came out at 6.17 µm; the Particle size D[v, 0.9] was 191 µm.

Turning to `CC1CN(Cc2ncccn2)CC1c1nc2c(cnn2C2CCOCC2)c(=O)[nH]1` (stereo not drawn) [A5], in series [1], the “Particle size D[4, 3]” value is reported as 89.2 μm; the Particle size D[v, 0.1] turned out to be 6.86 µm; the Particle size D[v, 0.9] was found to be 197 µm.

With `CC1CN(Cc2ncccn2)CC1c1nc2c(cnn2C2CCOCC2)c(=O)[nH]1` (stereo not drawn) [A10], in series [1], the “Particle size D[4, 3]” value turned out to be 49.5 μm; the Particle size D[v, 0.1] stood at 3.29 µm; the Particle size D[v, 0.9] is 129 µm.
